The source made the active and inactive calls.
What was measured:
[1] = inhibition of ADAM10 peptide cleavage – biochemical, FRET peptide substrate, recombinant human ADAM10, selectivity assay for ADAM17 exosite inhibitor project, dose response (AID 743259);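 further: ADAM10 enzyme cleaving a FRET peptide substrate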
[2] = target: Disintegrin and metalloproteinase domain-containing protein 17 (Homo sapiens, UniProt P78536); experiment: exosite inhibitors of ADAM17, dose response, biochemical (AID 743260)
[3] = system: HEK293; experiment: viability loss in HEK293T cells – cell-based, ATP luminescence, cherry-pick samples, cytotoxicity control, dose response (AID 687005); format: functional; conditions: Homo sapiens;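 further: cells exposed to compound for 48 hours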
[4] = system: HeLa; experiment: viability loss in HeLa cells – cell-based, ATP luminescence, cherry-pick samples, cytotoxicity control, dose response (AID 687004); format: functional; conditions: Homo sapiens
[5] = HEK293 Cytotoxicity Assay Measured in Cell-Based System Using Plate Reader - 7071-01_Inhibitor_Dose_CherryPick_Activity_Set2.; format: functional
[6] = target: T1, Small ubiquitin-related modifier 2 (Homo sapiens, UniProt P61956); experiment: SUMO2 binding disruption by SUMO1 hits – biochemical, FRET, human SUMO2, uHTS hits, selectivity assay for SUMO1 interaction inhibitor project, dose response (AID 624384); format: functional; conditions: read-out: IC50_Mean
T1 sequence (P61956 whole entry): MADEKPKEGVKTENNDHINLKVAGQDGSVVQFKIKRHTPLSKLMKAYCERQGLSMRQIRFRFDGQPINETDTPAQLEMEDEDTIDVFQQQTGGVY

[7] = target: T2, Small ubiquitin-related modifier 1 (Homo sapiens, UniProt P63165); experiment: SUMO1 protein interaction blockers, potency – biochemical, fluorescence polarization, uHTS hits, dose response (AID 624382); format: functional; conditions: read-out: IC50_Mean
T2 sequence (P63165 whole entry): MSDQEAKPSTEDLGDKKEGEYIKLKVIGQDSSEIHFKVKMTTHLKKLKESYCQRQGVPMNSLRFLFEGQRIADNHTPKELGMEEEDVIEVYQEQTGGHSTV

[8] = target: Nonstructural protein 1 (Influenza A virus, UniProt Q194T2); format: functional, Influenza A virus (A/California/07/2009(H1N1))
[9] = target: T3, Rac GTPase-activating protein 1 (Homo sapiens, UniProt Q9H0H5); experiment: blockers of MgcRacGAP-driven Rac1 GTP hydrolysis – biochemical, ADP Hunter fluorescence, primary and confirmatory, confirmation (AID 624330); format: functional
T3 sequence (Q9H0H5 whole entry): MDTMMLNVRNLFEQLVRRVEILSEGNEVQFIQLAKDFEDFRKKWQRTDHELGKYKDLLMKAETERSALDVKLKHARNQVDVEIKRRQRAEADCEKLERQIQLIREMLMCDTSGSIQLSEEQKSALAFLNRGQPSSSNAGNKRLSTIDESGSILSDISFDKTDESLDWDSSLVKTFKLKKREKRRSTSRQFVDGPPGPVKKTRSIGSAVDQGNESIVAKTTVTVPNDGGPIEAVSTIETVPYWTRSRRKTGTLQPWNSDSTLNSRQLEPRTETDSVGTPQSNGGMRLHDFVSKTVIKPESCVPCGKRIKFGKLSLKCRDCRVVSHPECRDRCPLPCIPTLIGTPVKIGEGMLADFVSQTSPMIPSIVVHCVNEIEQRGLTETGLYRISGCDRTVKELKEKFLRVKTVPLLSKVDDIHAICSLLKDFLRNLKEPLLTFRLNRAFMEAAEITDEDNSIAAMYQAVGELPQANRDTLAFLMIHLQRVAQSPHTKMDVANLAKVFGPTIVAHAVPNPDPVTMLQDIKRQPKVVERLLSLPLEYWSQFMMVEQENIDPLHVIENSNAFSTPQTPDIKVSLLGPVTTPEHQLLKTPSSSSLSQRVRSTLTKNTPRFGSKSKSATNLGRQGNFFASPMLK

[10] = target: Genome polyprotein (dengue virus type 2, UniProt P29990); experiment: flavivirus cap methylation enzyme inhibition – biochemical, confirmation dose response, primary screen (AID 588689); format: functional
[11] = target: T4, Sentrin-specific protease 8 (Homo sapiens, UniProt Q96LD8); format: functional
T4 sequence (Q96LD8 whole entry): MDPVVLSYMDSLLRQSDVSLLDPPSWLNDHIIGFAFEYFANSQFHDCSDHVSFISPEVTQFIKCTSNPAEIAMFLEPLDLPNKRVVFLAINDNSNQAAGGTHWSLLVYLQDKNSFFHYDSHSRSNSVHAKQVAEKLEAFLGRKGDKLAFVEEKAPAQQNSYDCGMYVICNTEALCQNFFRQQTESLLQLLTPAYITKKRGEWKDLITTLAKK

[12] = target: T2, Small ubiquitin-related modifier 1; experiment: SUMO1 protein-protein binding blockers, potency – biochemical, FRET, dose response (AID 624383); format: functional; conditions: read-out: IC50_Mean
[13] = target: T1, Small ubiquitin-related modifier 2; experiment: disruption of SUMO2 interaction with SIM peptide – biochemical, fluorescence polarization, uHTS hits, selectivity assay for SUMO1 interaction inhibitor project, dose response (AID 624385); format: functional; conditions: read-out: IC50_Mean
[14] = target: T5, Histone-lysine N-methyltransferase NSD2 (Homo sapiens, UniProt O96028); format: biochemical
T5 sequence (O96028 whole entry): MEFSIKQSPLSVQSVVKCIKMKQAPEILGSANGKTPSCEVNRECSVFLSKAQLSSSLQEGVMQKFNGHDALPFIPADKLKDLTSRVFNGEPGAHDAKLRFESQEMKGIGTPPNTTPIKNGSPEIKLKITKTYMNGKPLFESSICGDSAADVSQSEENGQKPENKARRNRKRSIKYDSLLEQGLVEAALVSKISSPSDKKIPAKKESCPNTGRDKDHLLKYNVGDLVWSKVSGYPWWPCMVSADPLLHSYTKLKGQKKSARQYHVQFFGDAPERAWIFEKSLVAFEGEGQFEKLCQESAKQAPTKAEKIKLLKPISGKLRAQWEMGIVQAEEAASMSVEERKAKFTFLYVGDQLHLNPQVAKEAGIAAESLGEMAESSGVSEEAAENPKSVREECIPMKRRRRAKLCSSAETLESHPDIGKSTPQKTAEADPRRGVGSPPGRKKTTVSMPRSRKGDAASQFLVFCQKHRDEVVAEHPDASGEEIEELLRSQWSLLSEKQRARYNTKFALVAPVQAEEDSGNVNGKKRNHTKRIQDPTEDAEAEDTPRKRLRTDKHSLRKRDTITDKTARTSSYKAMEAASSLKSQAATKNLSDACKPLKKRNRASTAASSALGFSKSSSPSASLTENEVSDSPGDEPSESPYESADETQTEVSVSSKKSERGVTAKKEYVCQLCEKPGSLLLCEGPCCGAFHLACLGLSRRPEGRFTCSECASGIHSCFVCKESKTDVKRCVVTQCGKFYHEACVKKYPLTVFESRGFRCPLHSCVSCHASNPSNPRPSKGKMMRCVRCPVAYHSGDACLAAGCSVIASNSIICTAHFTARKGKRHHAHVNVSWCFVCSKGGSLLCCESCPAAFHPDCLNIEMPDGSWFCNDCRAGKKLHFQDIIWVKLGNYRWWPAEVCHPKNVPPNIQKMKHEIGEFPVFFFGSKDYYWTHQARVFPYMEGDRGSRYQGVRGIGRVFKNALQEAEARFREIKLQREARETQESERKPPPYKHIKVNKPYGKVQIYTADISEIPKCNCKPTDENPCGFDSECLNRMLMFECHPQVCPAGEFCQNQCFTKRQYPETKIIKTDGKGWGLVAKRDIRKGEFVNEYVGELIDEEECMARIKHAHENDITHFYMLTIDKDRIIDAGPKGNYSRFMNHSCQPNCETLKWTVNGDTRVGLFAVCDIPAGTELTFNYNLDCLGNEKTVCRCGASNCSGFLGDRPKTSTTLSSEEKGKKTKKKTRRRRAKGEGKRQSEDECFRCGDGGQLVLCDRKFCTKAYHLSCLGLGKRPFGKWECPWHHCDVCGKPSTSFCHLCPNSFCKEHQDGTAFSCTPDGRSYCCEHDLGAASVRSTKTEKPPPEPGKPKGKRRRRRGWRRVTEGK

[15] = target: ORF 73 (Human herpesvirus 8, UniProt O40947); experiment: KSHV LANA DNA-binding disruption – biochemical, fluorescence polarization, cherry-picked samples, dose response (AID 504725); set-up: species or system Human gammaherpesvirus 8;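 further: fluorescence polarization of a labeled DNA duplex reporting LANA DNA binding; potency is for inhibitors that block LANA binding to the DNA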
ORF 73, sequence (O40947 whole entry): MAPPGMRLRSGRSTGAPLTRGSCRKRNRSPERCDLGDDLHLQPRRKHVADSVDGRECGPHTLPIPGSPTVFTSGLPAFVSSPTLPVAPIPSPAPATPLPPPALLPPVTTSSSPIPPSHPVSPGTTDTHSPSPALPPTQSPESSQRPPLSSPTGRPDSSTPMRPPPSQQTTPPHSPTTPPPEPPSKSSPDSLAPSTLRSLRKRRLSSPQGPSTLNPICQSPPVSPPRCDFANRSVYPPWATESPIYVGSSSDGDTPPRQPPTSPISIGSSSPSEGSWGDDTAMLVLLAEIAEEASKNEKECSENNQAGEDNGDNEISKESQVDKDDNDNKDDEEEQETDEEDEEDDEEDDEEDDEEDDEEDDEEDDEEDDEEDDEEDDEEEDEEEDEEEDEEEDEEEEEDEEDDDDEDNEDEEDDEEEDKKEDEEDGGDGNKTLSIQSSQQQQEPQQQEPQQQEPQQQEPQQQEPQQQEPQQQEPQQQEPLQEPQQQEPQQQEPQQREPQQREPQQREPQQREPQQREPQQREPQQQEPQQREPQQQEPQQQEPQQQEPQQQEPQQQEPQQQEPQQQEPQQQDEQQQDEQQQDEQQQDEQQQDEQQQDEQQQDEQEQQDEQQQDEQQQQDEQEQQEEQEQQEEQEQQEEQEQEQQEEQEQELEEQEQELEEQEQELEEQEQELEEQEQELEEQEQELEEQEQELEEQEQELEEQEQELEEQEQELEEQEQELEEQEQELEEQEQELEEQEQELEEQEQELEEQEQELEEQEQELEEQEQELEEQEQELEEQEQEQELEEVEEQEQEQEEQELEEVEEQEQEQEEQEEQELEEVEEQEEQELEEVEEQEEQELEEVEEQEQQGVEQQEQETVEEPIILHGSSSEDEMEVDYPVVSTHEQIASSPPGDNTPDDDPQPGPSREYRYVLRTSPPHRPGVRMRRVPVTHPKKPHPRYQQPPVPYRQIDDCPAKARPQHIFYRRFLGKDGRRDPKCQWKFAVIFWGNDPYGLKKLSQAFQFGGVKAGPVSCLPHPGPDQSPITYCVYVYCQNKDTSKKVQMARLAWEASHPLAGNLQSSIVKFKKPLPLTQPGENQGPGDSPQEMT

[16] = target: T6, Fatty acid synthase (Homo sapiens, UniProt P49327); experiment: inhibition of human FAS-TE enzyme activity – biochemical, endpoint fluorescence intensity, uHTS hits, dose response (AID 624327); format: functional;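 further: fluorescence from hydrolysis of an O-methyl fluorescein acyl ester substrate by the enzyme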
T6 sequence (P49327 whole entry): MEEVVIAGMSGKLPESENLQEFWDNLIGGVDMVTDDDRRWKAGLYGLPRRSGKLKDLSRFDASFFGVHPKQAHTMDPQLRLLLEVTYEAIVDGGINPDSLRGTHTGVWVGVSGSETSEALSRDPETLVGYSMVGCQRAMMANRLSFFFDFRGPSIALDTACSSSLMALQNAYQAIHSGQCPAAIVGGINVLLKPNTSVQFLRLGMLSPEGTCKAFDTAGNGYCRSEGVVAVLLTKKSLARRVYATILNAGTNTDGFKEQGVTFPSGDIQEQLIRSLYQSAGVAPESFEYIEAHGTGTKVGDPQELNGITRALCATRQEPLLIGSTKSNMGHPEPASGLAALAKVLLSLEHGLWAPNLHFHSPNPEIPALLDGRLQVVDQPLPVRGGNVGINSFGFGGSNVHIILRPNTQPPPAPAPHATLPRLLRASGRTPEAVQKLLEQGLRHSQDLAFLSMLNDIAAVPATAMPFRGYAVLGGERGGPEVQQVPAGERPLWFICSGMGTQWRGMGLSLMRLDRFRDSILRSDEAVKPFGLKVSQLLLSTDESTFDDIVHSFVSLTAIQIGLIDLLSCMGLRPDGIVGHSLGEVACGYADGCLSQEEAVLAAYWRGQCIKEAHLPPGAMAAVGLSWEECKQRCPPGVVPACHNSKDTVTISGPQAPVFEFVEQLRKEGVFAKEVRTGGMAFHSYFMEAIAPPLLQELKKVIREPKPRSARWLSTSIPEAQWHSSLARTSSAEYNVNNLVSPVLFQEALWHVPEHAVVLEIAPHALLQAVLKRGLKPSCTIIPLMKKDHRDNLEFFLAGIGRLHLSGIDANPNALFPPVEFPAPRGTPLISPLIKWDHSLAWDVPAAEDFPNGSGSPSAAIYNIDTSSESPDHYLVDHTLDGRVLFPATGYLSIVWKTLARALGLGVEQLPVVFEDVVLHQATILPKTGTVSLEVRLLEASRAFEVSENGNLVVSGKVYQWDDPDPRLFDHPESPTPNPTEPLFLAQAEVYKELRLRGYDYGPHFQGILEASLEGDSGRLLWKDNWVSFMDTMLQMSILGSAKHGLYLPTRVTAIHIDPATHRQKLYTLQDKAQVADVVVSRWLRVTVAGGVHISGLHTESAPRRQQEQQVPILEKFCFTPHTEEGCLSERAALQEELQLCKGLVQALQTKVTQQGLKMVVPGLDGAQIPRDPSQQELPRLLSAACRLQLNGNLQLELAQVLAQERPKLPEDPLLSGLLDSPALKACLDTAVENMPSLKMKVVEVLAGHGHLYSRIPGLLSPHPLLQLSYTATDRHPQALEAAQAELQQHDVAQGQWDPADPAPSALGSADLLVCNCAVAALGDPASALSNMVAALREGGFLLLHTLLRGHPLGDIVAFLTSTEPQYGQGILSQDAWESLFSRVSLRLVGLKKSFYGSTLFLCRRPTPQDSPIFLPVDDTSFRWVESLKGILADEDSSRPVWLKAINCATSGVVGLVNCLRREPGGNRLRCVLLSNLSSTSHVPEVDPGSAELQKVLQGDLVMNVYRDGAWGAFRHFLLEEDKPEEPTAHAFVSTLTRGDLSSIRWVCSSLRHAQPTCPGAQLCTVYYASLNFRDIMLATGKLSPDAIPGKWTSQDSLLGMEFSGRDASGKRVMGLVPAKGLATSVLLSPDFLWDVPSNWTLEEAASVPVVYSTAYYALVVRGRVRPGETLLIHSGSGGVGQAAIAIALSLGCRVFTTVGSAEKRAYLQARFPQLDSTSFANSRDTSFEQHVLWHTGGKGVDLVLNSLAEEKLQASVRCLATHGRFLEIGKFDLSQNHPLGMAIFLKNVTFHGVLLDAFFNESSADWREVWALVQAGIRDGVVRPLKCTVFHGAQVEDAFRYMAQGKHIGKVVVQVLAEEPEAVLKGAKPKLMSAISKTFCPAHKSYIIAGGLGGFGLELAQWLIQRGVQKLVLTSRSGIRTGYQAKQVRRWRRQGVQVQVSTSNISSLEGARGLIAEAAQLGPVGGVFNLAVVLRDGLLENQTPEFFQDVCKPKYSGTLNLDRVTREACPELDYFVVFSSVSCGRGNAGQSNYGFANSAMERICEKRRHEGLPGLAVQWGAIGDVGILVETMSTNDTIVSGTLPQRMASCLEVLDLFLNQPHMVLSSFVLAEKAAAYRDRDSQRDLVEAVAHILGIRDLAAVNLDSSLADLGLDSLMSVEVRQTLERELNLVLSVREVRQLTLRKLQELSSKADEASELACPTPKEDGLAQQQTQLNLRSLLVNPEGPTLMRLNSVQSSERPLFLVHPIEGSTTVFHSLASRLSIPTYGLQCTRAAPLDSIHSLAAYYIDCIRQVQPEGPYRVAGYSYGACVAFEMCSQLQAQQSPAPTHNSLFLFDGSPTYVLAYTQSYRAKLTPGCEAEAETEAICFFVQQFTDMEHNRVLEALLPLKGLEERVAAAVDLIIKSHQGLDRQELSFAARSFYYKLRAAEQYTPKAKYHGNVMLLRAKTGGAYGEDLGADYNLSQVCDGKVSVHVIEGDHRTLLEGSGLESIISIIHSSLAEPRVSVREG

[17] = target: T6, Fatty acid synthase; experiment: inhibition of human FAS-TE enzyme activity – biochemical, kinetic fluorescence intensity, dose response (AID 624326); format: functional;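 further: rate of fluorescence rise from hydrolysis of a fluorogenic O-methyl fluorescein ester substrate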
[18] = target: Matrix metalloproteinase-14 (Homo sapiens, UniProt P50281); experiment: Dose Response confirmation of uHTS hits for a small molecule inhibitors of MT1-MMP activation in a fluorescence assay set 1.; format: functional
[19] = target: T4, Sentrin-specific protease 8; format: functional; remark: listed apart in the source
[20] = system: A549; experiment: viability loss in A549 cells – cell-based, plate reader, cherry-pick samples, cytotoxicity control, dose response (AID 687028); format: functional; conditions: Homo sapiens
[21] = T. cruzi growth inhibition in host cells, dose response, cell-based, plate reader, dry powder, set 2 (AID 652275); format: functional
[22] = target: T7, Polyadenylate-binding protein 1 (Homo sapiens, UniProt P11940); experiment: MLLE binding blockers, Cy5 peptide tracer – biochemical, fluorescence polarization, Cy5-PAM2 peptide, secondary, miRNA deadenylation inhibitor project, dose response (AID 602260); format: functional; conditions: read-out: IC50_Mean
T7 sequence (P11940 whole entry, the tested form may be a part): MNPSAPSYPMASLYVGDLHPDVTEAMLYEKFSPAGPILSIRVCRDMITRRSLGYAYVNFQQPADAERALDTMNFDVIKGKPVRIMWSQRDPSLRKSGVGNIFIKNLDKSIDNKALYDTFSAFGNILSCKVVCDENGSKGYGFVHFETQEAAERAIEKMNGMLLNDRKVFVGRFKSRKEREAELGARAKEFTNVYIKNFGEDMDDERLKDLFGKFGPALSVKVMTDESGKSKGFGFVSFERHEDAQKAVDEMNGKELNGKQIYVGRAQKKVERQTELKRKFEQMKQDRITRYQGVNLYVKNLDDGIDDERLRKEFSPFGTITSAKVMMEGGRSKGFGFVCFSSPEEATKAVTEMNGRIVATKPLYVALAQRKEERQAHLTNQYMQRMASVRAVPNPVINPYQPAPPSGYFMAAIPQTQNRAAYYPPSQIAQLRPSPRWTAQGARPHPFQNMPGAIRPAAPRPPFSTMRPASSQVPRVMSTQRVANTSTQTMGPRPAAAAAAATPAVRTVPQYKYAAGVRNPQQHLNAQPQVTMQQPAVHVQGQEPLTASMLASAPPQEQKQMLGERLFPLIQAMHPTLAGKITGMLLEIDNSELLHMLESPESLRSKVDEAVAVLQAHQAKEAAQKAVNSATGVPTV

[23] = target: T7, Polyadenylate-binding protein 1; experiment: MLLE domain peptide-binding blockers, IC50 – biochemical, fluorescence polarization, FITC-PAM2 peptide, dose response (AID 602259); format: functional; conditions: read-out: IC50_Mean
[24] = HGIII-sPLA2 enzyme inhibition potency – biochemical, QFRET, IC50, dose response (AID 743457);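 further: green fluorescence rise as the enzyme cleaves BODIPY PC-A2 in liposomes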
[25] = inhibition of bursicon-driven LGR2 cAMP signaling – cell-based, HEK293, CRE-luciferase reporter, cherry pick, dose response (AID 743342); format: functional
[26] = A549 cell cytotoxicity, dose response, cytotoxicity control, plate reader, cherry-pick, antagonist series (AID 743412); format: functional, cell-based
[27] = target: NS3 (Hepatitis C virus, UniProt A3EZJ3); experiment: NS3h DNA-binding inhibition IC50 – biochemical, fluorescence polarization, ChemBridge library, dose response (AID 743264)
NS3, sequence (A3EZJ3 whole entry): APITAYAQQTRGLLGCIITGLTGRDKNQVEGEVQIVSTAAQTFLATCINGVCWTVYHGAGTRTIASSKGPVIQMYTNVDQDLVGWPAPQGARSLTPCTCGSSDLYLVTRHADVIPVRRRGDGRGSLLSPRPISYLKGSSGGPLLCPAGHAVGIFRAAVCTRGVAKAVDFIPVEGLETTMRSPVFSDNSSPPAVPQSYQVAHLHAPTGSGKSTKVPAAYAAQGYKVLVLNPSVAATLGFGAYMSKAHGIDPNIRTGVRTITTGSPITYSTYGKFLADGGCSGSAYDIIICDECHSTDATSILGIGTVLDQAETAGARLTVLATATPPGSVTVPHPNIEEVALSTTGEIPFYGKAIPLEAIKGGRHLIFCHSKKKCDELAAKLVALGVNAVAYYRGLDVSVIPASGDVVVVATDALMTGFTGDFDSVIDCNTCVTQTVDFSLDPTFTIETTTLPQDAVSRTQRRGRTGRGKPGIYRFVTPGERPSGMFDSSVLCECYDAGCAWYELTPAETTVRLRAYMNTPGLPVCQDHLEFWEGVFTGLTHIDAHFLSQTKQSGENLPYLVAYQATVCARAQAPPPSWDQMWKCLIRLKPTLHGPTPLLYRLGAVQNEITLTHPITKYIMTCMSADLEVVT

For `CCOc1ccc(S(=O)(=O)Nc2ccc(F)cc2)c(C)c1C`, the IC50 [1] was > 7.72 µM (active) and the IC50 [2] was > 69.5 µM (inactive).
In the case of `O=C(C[C@@H]1CC[C@H]2[C@@H](COC[C@H](O)CN2Cc2ccc(Oc3ccccc3)cc2)O1)Nc1nccs1`, the AC50 [3] is reported as 7.07 µM (active), the AC50 [4] is reported as 43.9 µM (active) and the AC50 [5] is reported as 7.07 µM (active).
With `Cc1ccccc1C1=C/C(=C(\SS/C(C(=O)c2ccc(OCC(=O)O)c(Cl)c2Cl)=C2\C=C(c3ccccc3C)SS2)C(=O)c2ccc(OCC(=O)O)c(Cl)c2Cl)SS1` the IC50 [6] was 2.65 µM (active), the IC50 [7] was 2.48 µM (active) and the IC50 [8] was 16.1 µM (active). For the same compound, the IC50 [9] was 61.1 µM (active), the IC50 [10] was 9.25 µM (active) and the IC50 [11] was 9.29 µM (active). For the same compound, the IC50 [12] was 50.2 µM (inactive), the IC50 [13] was 1.51 µM (active) and the AC50 [14] was 6.35 µM (active). The AC50 [15] was 63.2 µM (active), the IC50 [16] was 8.12 µM (active) and the IC50 [17] was 6.62 µM (active). For the same compound, the IC50 [18] was 22.7 µM (inactive) and the IC50 [19] was 56.9 µM (active).
For `C[C@H]1CCCCO[C@H](CN(C)C(=O)Nc2ccc(C(F)(F)F)cc2)[C@@H](C)CN([C@@H](C)CO)C(=O)c2cc(NC(=O)C3CCCCC3)ccc2O1`, the AC50 [20] was 20.8 µM (active).
For `CN(C)CC#Cc1cccc(-c2nc(C(=O)N[C@@H]3CCN(Cc4ccccc4)C3)cc3c2[C@@H](CCO)N([S+]([O-])C(C)(C)C)C3)c1` (some centres not stated), the AC50 [21] was 0.0256 µM (active).
With `Cc1ccc(NC(=S)N/N=C2/CCCCc3ccccc32)cc1` the IC50 [22] was > 66 µM (inactive), the IC50 [23] was > 66 µM (inactive) and the IC50 [24] was > 122 µM (inactive).
For `C[C@H]1CCCCO[C@@H](CN(C)C(=O)Nc2ccc3c(c2)OCO3)[C@@H](C)CN([C@@H](C)CO)C(=O)c2cc(NC(=O)NC3CCCCC3)ccc2O1`, the AC50 [25] was 16.9 µM (active) and the AC50 [26] was 35.3 µM (active).
With `Cc1ccc(N2C(=O)NC(=O)/C(=C/c3ccc(-c4cccc(C(=O)O)c4)o3)C2=O)cc1` the IC50 [27] was 14.8 µM (inactive).

From ChEMBL document CHEMBL1201862, “PubChem BioAssay data set” (2004)
